Source: US20260124213A1, “STAPHYLOCOCCUS AUREUS PBP4 INHIBITORS AND METHOD OF USE” (UNIVERSITY OF ROCHESTER, priority 2022, published 2026)

Experiments:
S. aureus strain CRB = assay: microbe, parasite or virus in culture; assay type: cell-based, Staphylococcus aureus; details: CRB
Description: Fractional Inhibitory Concentration Index (FICI). Fractional inhibitory testing was performed in checkerboard format to determine whether putative PBP4 inhibitors potentiated the antimicrobial effects of β-lactams toward S. aureus strains USA300 and CRB, as previously described (Chojacnki, et al. Journal of Antimicrobial Chemotherapy, 2003, 52, 1). To do so, in triplicate 10^5 CFU of each strain (10 μL) was added to individual wells of a microtiter plate containing 90 μL MH media. […] Plates were incubated at 37° C. for 16-20 hour and the lowest concentration of each test agent that inhibited bacterial growth alone or in combination was determined by the naked eye. The fractional inhibitory concentration (FIC) index was calculated using the formula: FIC of A (MIC of drug A in combination/MIC of drug A alone)+FIC B ([…]/MIC of drug B alone). A synergistic interaction was defined as a FICI value of less than 0.5, an additive interaction was defined as a FICI value between 0.5 and 1.0, an indifferent interaction was defined as a FICI value between 1.0 and 4.0, and an antagonistic interaction was defined as a FICI value of more than 4.0.

HEPG2 cells = assay: MTT cell viability / mammalian cytotoxicity; assay type: cell-based, human; details: 100 μM; HEPG2 approx. 2.5 × 10^5 cells/mL; Ex. 3 series
Description: Eukaryotic Toxicity Testing. Two rounds of eukaryotic toxicity testing were performed. Initially hits of interest were evaluated for antifungal activity in high throughput manner. To do so, 10^5 CFU of Saccharomyces cerevisiae YSB1001 cells (10 μL) were inoculated into individual wells of a microtiter plate containing yeast peptone dextrose media (88 μL) and 50 μM of each hit (2 μL). […] More extensive mammalian cytotoxicity testing was performed on the indicated highest priority hits of interest following International Organization for Standardization guidelines. Briefly, human liver epithelial cells (HEPG2) were cultured in Dulbecco's modified Eagle medium (DMEM; Fisher Scientific®) supplemented with 10% heat inactivated fetal bovine serum (FBS; Corning Life Sciences, Corning, NY) and 1% penicillin and streptomycin. Cells were incubated at 37° C. with 5% CO2 in Nunc™ tissue culture flasks (Roskilde, Denmark) until reaching 70% confluency. Cells were removed with 0.25% trypsin (Fisher Scientific®), resuspended in fresh medium, and used to seed approximately 2.5×10^5 mL^−1 cells into individual wells of a 96 well tissue culture microplate (Nunc™) containing 200 μL of fresh medium, and incubated for 24 hours. […] Mixtures were incubated for 20-24 h at 37° C. with 5% CO2, the media was removed and replaced with 100 μL fresh media and 10 μL of 12 mM (3-(4,5-dimethylthiazol-2-yl)-2,5-diphenyltetrazolium bromide (MTT) reagent (Cyquant™ Cell Viability kit; Invitrogen™, Carlsbad, CA) was added to each well. Cells were incubated at 37° C. with 5% CO2 for 2-4 hour, 85 μL of media was removed and the remainder was mixed with 50 μL DMSO and incubated for an additional 10 minutes at 37° C. in the dark. Using a SpectraMax® M5 microplate reader, cell viability was recorded as absorbance at OD540 nm. All compounds were tested in triplicate and cell viability was expressed as a percent viability of treated cells in comparison to mock treated cells. […]

pbp4 expression in CRB = assay: Quantitative reverse transcriptase PCR of pbp4 transcript; assay type: cell-based, Staphylococcus aureus; details: 25 μM, 3 hour
Description: (§1) Quantitative Reverse Transcriptase PCR. PBP4 transcript titers of bacterial cells exposed to putative PBP4 inhibitors were measured using real time quantitative PCR (RT-qPCR), as previously described (Chojnacki, et al. Antibiotics, 2021, 10, 369). Briefly, overnight cultures of S. aureus strains USA300, USA300Δpbp4, CRB, and CRBΔpbp4 were grown overnight in MH media, diluted (1:100 dilution) in fresh media and sub-cultured to a final OD600 nm of 0.2 at 37° C. with aeration. […] Cells were washed with PBS buffer, and collected via centrifugation at 1,250×g for 10 minutes. Total bacterial RNA was isolated from cell pellets using Qiagen® RNeasy kits, following the manufacturer's guidelines for prokaryotic RNA isolation (Qiagen®, Germantown, MD). A total of 2 μg RNA was DNase treated and repurified using RNeasy kits.
(§2) To measure pbp4 expression, a total of 400 ng of total bacterial RNA was used as a template for qRT-PCR using pbp4 primers (forward, 5′-[…]-3′; reverse, 5′-[…]-3′) and a total of 4 ng of total bacterial RNA was used as a template for primers specific for 16S rRNA (forward, 5′-[…]-3′; reverse, 5′-[…]-3′). Bacterial RNA was amplified and measured using PerfeCTa® SYBR Green FastMix® and qScript® cDNA SuperMix® kits following the manufacturer's recommendations (QuantaBio®, Beverly, MA). […]

[1] = tested on: pbp4 expression in USA300; assay: as above; assay type: cell-based, Staphylococcus aureus; details: 25 μM, 3 hour
Description: as §1, §2

O=C(Nc1ccc2[nH]c(-c3cccs3)nc2c1)c1ccco1 [Compound 1 (7729837)]
Cmpd (putative PBP4 inhibitor) MIC, Alone (S. aureus strain CRB): 200 µM | Fold-decrease in ceftobiprole resistance in combination (S. aureus strain CRB): 2 | Cmpd concentration, Combination (S. aureus strain CRB; with ceftobiprole): 50 µM | BPR (ceftobiprole) MIC, Combination (S. aureus strain CRB; with putative PBP4 inhibitor): 64 µg/mL | Toxicity with HEPG2 Cells (cell viability) (HEPG2 cells): 95±16.8% | pbp4 expression (qRT-PCR) (pbp4 expression in CRB): significantly reduced | pbp4 expression (qRT-PCR) [1]: slightly reduced
